Experimental data: ChEMBL document CHEMBL1138518 (J Med Chem, 2009)

Legend:
SK-BR-3 = assay: Cytotoxicity against human SKBR3 cells after 72 hrs by celltiter-glo assay; assay type: functional, cell-based
[1] = target: Heat shock protein HSP 90-beta (Homo sapiens, UniProt P08238); assay: Binding affinity to human recombinant HSP90
MCF7 = assay: Cytotoxicity against human MCF7 cells after 72 hrs by celltiter-glo assay; assay type: functional, cell-based; conditions: MCF7, 72 h
SK-OV-3 = assay: Cytotoxicity against human SKOV3 cells after 72 hrs by celltiter-glo assay; assay type: functional, cell-based; conditions: SK-OV-3, 72 h
A549 = assay: Cytotoxicity against human A549 cells after 72 hrs by celltiter-glo assay; assay type: functional, cell-based; conditions: A549, 72 h
CCRF-CEM [2] = assay: Cytotoxicity against human CCRF-CEM cells after 72 hrs by celltiter-96 aqueous one solution assay; assay type: functional, cell-based
CCRF-CEM [3] = assay: Cytotoxicity against human paclitaxel-resistant CCRF-CEM cells after 72 hrs by celltiter-96 aqueous one solution assay; assay type: functional, cell-based
[4] = Chemical stability assessed as half life at pH 7.75; assay type: physicochemical; conditions: buffer

Sequence of Heat shock protein HSP 90-beta (P08238 whole entry): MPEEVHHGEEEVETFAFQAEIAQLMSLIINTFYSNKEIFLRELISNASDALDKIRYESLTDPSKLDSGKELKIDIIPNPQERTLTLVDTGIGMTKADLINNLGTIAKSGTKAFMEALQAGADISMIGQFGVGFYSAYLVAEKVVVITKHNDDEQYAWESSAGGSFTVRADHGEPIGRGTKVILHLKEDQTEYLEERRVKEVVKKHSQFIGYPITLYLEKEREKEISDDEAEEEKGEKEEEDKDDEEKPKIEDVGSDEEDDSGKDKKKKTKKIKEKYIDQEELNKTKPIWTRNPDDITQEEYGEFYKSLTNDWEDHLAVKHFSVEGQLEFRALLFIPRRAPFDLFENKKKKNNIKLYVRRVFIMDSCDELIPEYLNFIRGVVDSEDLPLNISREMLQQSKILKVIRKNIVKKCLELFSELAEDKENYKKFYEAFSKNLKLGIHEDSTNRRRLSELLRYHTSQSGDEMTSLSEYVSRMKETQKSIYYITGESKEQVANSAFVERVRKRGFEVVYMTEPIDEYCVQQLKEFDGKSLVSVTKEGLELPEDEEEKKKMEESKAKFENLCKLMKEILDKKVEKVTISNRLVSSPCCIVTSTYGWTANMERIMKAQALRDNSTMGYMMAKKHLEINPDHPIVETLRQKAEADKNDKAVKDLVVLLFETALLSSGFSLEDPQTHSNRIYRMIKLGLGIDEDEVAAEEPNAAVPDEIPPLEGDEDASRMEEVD

Structure (SMILES)	IC50 (SK-BR-3; Homo sapiens, SK-BR-3, 72 h) [nM]	Kd [1] [nM]	also measured
CO[C@H]1/C=C\C=C(/C)C(=O)NC2=CC(=O)C(NCCN(C)C)=C(C[C@@H](C)C[C@H](OC)[C@H](OC(=O)NN)[C@@H](C)/C=C(\C)[C@@H]1OC(N)=O)C2=O	> 1000	–	IC50 [1]: 5 nM
COC1=C2C[C@@H](C)C[C@H](OC)[C@H](OC)[C@@H](C)/C=C(\C)[C@H](OC(N)=O)[C@@H](OC)/C=C\C=C(/C)C(=O)NC(=CC1=O)C2=O	9.1	490	–
CO[C@H]1[C@@H](OC)C[C@H](C)CC2=C(N)C(=O)C=C(NC(=O)/C(C)=C/C=C\[C@H](OC)[C@@H](OC(N)=O)/C(C)=C/[C@@H]1C)C2=O	84	320	IC50 (MCF7): 350 nM; IC50 (SK-OV-3): 200 nM; IC50 (A549): 37 nM; IC50 (CCRF-CEM [2]): 250 nM; IC50 (CCRF-CEM [3]): 850 nM
CO[C@H]1C[C@H](C)CC2=C(N3CCC3)C(=O)C=C(NC(=O)/C(C)=C/C=C\[C@H](OC)[C@@H](OC(N)=O)/C(C)=C/[C@H](C)/C1=N\O)C2=O	310	> 25000	–
C=CCNC1=C2C[C@@H](C)C[C@H](OC)/C(=N/O)[C@@H](C)/C=C(\C)[C@H](OC(N)=O)[C@@H](OC)/C=C\C=C(/C)C(=O)NC(=CC1=O)C2=O	350	> 10000	–
C=CCO[C@H]1[C@@H](OC)C[C@H](C)CC2=C(N3CCC3)C(=O)C=C(NC(=O)/C(C)=C/C=C\[C@H](OC)[C@@H](OC(N)=O)/C(C)=C/[C@@H]1C)C2=O	390	2900	–
CO[C@H]1[C@@H](OC)C[C@H](C)CC2=C(NCCN(C)C)C(=O)C=C(NC(=O)/C(C)=C/C=C\[C@H](OC)[C@@H](OC(N)=O)/C(C)=C/[C@@H]1C)C2=O	11	800	IC50 (MCF7): 50 nM; IC50 (SK-OV-3): 43 nM; IC50 (A549): 23 nM; IC50 (CCRF-CEM [2]): 58 nM; IC50 (CCRF-CEM [3]): 390 nM
CO[C@H]1C[C@H](C)CC2=C(NCCF)C(=O)C=C(NC(=O)/C(C)=C/C=C\[C@H](OC)[C@@H](OC(N)=O)/C(C)=C/[C@H](C)/C1=N\O)C2=O	> 1000	> 25000	–
C=CCNC1=C2C[C@@H](C)C[C@H](OC)C(=O)[C@@H](C)/C=C(\C)[C@H](OC(N)=O)[C@@H](OC)/C=C\C=C(/C)C(=O)NC(=CC1=O)C2=O (stereo in doubt)	450	3300	–
CO[C@H]1/C=C\C=C(/C)C(=O)NC2=CC(=O)C(N)=C(C[C@@H](C)C[C@H](OC)[C@H](O)[C@@H](C)/C=C(\C)[C@@H]1OC(N)=O)C2=O (stereo in doubt)	33	100	–
CO[C@H]1C[C@H](C)CC2=C(N3CCC3)C(=O)C=C(NC(=O)/C(C)=C/C=C\[C@H](OC)[C@@H](OC(N)=O)/C(C)=C/[C@H](C)C1=O)C2=O (stereo in doubt)	260	6400	–
CO[C@H]1/C=C\C=C(/C)C(=O)NC2=CC(=O)C(NCCF)=C(C[C@@H](C)C[C@H](OC)[C@H](O)[C@@H](C)/C=C(\C)[C@@H]1OC(N)=O)C2=O (stereo in doubt)	17	800	–
CO[C@H]1/C=C\C=C(/C)C(=O)NC2=CC(=O)C(N3CCC3)=C(C[C@@H](C)C[C@H](OC)[C@H](O)[C@@H](C)/C=C(\C)[C@@H]1OC(N)=O)C2=O (stereo in doubt)	24	1400	–
CO/N=C1/[C@@H](OC)C[C@H](C)CC2=C(NCCN(C)C)C(=O)C=C(NC(=O)/C(C)=C/C=C\[C@H](OC)[C@@H](OC(N)=O)/C(C)=C/[C@@H]1C)C2=O (stereo in doubt)	550	> 100000	–
C=CCNC1=C2C[C@@H](C)C[C@H](OC)[C@H](OC(=O)CN)[C@@H](C)/C=C(\C)[C@H](OC(N)=O)[C@@H](OC)/C=C\C=C(/C)C(=O)NC(=CC1=O)C2=O (stereo in doubt)	350	> 25000	half-life [4]: 78 h
CO[C@H]1C[C@H](C)CC2=C(NCCF)C(=O)C=C(NC(=O)/C(C)=C/C=C\[C@H](OC)[C@@H](OC(N)=O)/C(C)=C/[C@H](C)C1=O)C2=O (stereo in doubt)	170	2600	–
C=CCNC1=C2C[C@@H](C)C[C@H](OC)[C@H](OC)[C@@H](C)/C=C(\C)[C@H](OC(N)=O)[C@@H](OC)/C=C\C=C(/C)C(=O)NC(=CC1=O)C2=O (stereo in doubt)	280	2800	IC50 (MCF7): 760 nM; IC50 (SK-OV-3): 1300 nM; IC50 (A549): 360 nM; IC50 (CCRF-CEM [2]): 2500 nM; IC50 (CCRF-CEM [3]): 3500 nM
C=CCO/N=C1/[C@@H](OC)C[C@H](C)CC2=C(NCCN(C)C)C(=O)C=C(NC(=O)/C(C)=C/C=C\[C@H](OC)[C@@H](OC(N)=O)/C(C)=C/[C@@H]1C)C2=O (stereo in doubt)	400	> 100000	–

Structure (SMILES)	IC50 (SK-BR-3; Homo sapiens, SK-BR-3, 72 h) [nM]	Kd [1] [nM]	also measured
CO[C@H]1[C@@H](OC)C[C@H](C)CC2=C(NCCN3CCC3)C(=O)C=C(NC(=O)/C(C)=C/C=C\[C@H](OC)[C@@H](OC(N)=O)/C(C)=C/[C@@H]1C)C2=O (stereo in doubt)	130	1000	IC50 (MCF7): 51 nM; IC50 (SK-OV-3): 65 nM; IC50 (A549): 26 nM; IC50 (CCRF-CEM [2]): 85 nM; IC50 (CCRF-CEM [3]): 510 nM
CO[C@H]1/C=C\C=C(/C)C(=O)NC2=CC(=O)C(NCCF)=C(C[C@@H](C)C[C@H](OC)[C@H](OC(=O)CN)[C@@H](C)/C=C(\C)[C@@H]1OC(N)=O)C2=O (stereo in doubt)	110	> 25000	–
CO[C@H]1[C@@H](OC)C[C@H](C)CC2=C(N3CCC3)C(=O)C=C(NC(=O)/C(C)=C/C=C\[C@H](OC)[C@@H](OC(N)=O)/C(C)=C/[C@@H]1C)C2=O (stereo in doubt)	24	4000	IC50 (MCF7): 63 nM; IC50 (SK-OV-3): 110 nM; IC50 (A549): 29 nM; IC50 (CCRF-CEM [2]): 420 nM; IC50 (CCRF-CEM [3]): 2500 nM
CO[C@H]1C[C@H](C)CC2=C(NCCN(C)C)C(=O)C=C(NC(=O)/C(C)=C/C=C\[C@H](OC)[C@@H](OC(N)=O)/C(C)=C/[C@H](C)/C1=N\OCCN(C)C)C2=O (stereo in doubt)	2500	> 100000	–
CO[C@H]1[C@@H](OC)C[C@H](C)CC2=C(NCCc3c[nH]cn3)C(=O)C=C(NC(=O)/C(C)=C/C=C\[C@H](OC)[C@@H](OC(N)=O)/C(C)=C/[C@@H]1C)C2=O (stereo in doubt)	60	2000	IC50 (MCF7): 160 nM; IC50 (SK-OV-3): 320 nM; IC50 (A549): 420 nM; IC50 (CCRF-CEM [2]): 510 nM; IC50 (CCRF-CEM [3]): 3000 nM
CNCCNC1=C2C[C@@H](C)C[C@H](OC)[C@H](OC(=O)CN)[C@@H](C)/C=C(\C)[C@H](OC(N)=O)[C@@H](OC)/C=C\C=C(/C)C(=O)NC(=CC1=O)C2=O (stereo in doubt)	340	> 25000	half-life [4]: 74 h
CO[C@H]1/C=C\C=C(/C)C(=O)NC2=CC(=O)C(NCCc3c[nH]cn3)=C(C[C@@H](C)C[C@H](OC)[C@H](O)[C@@H](C)/C=C(\C)[C@@H]1OC(N)=O)C2=O (stereo in doubt)	98	800	–
CO[C@H]1C[C@H](C)CC2=C(NCCN(C)C)C(=O)C=C(NC(=O)/C(C)=C/C=C\[C@H](OC)[C@@H](OC(N)=O)/C(C)=C/[C@H](C)/C1=N\O)C2=O (stereo in doubt)	95	> 10000	–
CO[C@H]1C[C@H](C)CC2=C(NCCN(C)C)C(=O)C=C(NC(=O)/C(C)=C/C=C\[C@H](OC)[C@@H](OC(N)=O)/C(C)=C/[C@H](C)/C1=N\OCC(=O)O)C2=O (stereo in doubt)	2700	> 25000	–
CO[C@H]1[C@@H](OC)C[C@H](C)CC2=C(NCCF)C(=O)C=C(NC(=O)/C(C)=C/C=C\[C@H](OC)[C@@H](OC(N)=O)/C(C)=C/[C@@H]1C)C2=O (stereo in doubt)	130	2300	IC50 (MCF7): 58 nM; IC50 (SK-OV-3): 460 nM; IC50 (A549): 67 nM; IC50 (CCRF-CEM [2]): 960 nM; IC50 (CCRF-CEM [3]): 2700 nM
CO[C@H]1/C=C\C=C(/C)C(=O)NC2=CC(=O)C(NCCN3CCCC3)=C(C[C@@H](C)C[C@H](OC)[C@H](O)[C@@H](C)/C=C(\C)[C@@H]1OC(N)=O)C2=O (stereo in doubt)	70	400	–
CO[C@H]1/C=C\C=C(/C)C(=O)NC2=CC(=O)C(NCCN3CCC3)=C(C[C@@H](C)C[C@H](OC)[C@H](O)[C@@H](C)/C=C(\C)[C@@H]1OC(N)=O)C2=O (stereo in doubt)	26	400	–
CO[C@H]1[C@@H](OC)C[C@H](C)CC2=C(NCCN3CCCC3)C(=O)C=C(NC(=O)/C(C)=C/C=C\[C@H](OC)[C@@H](OC(N)=O)/C(C)=C/[C@@H]1C)C2=O (stereo in doubt)	160	1000	IC50 (MCF7): 76 nM; IC50 (SK-OV-3): 69 nM; IC50 (A549): 62 nM; IC50 (CCRF-CEM [2]): 160 nM; IC50 (CCRF-CEM [3]): 520 nM
CO[C@H]1C[C@H](C)CC2=C(NCCN(C)C)C(=O)C=C(NC(=O)/C(C)=C/C=C\[C@H](OC)[C@@H](OC(N)=O)/C(C)=C/[C@H](C)C1=O)C2=O (stereo in doubt)	100	1800	–
CO[C@H]1C[C@H](C)CC2=C(NCCN(C)C)C(=O)C=C(NC(=O)/C(C)=C/C=C\[C@H](OC)[C@@H](OC(N)=O)/C(C)=C/[C@H](C)/C1=N\OCc1ccccc1)C2=O (stereo in doubt)	480	> 100000	–
CO[C@H]1/C=C\C=C(/C)C(=O)NC2=CC(=O)C(NCCN(C)C)=C(C[C@@H](C)C[C@H](OC)[C@H](O)[C@@H](C)/C=C(\C)[C@@H]1OC(N)=O)C2=O (stereo in doubt) [ALVESPIMYCIN]	24	–	IC50 (MCF7): 230 nM; IC50 (SK-OV-3): 220 nM; IC50 (A549): 68 nM; IC50 (CCRF-CEM [2]): 540 nM; IC50 (CCRF-CEM [3]): 2500 nM
COC1=C2C[C@@H](C)C[C@H](OC)[C@H](O)[C@@H](C)/C=C(\C)[C@H](OC(N)=O)[C@@H](OC)/C=C\C=C(/C)C(=O)NC(=CC1=O)C2=O [GELDANAMYCIN]	–	–	IC50 (SK-BR-3; sk-br-3): 41 nM
C=CCNC1=C2C[C@@H](C)C[C@H](OC)[C@H](O)[C@@H](C)/C=C(\C)[C@H](OC(N)=O)[C@@H](OC)/C=C\C=C(/C)C(=O)NC(=CC1=O)C2=O [TANESPIMYCIN]	33	–	–
